Data published in ChEMBL document CHEMBL4385643, “Design of a brain-penetrant CDK4/6 inhibitor for glioblastoma” (Bioorg Med Chem Lett, 2019).

Experiments:
[1] = target: Tyrosine-protein kinase CSK (Homo sapiens) (UniProt P41240); assay: Inhibition of recombinant full length human His-tagged CSK expressed in Escherichia coli expression system at 0.1 uM using tyrosine-2 peptide as substrate incubated for 60 mins by Z'-LYTE assay relative to control
[2] = target: Ephrin type-A receptor 3 (Homo sapiens) (UniProt P29320); assay: Inhibition of tracer 236 binding to recombinant human His-tagged EPHA3 (569 to 976 residues) expressed in baculovirus expression system at 0.1 uM measured after 60 mins by Lanthascreen assay relative to control
[3] = target: Serine/threonine-protein kinase mTOR (Homo sapiens) (UniProt P42345); assay: Inhibition of recombinant human GST-tagged mTOR catalytic domain (1360 to 2549 residues) expressed in baculovirus expression system at 0.1 uM using serine/threonine-11 peptide as substrate incubated for 60 mins by Z'-LYTE assay relative to control
[4] = target: Casein kinase I isoform alpha (Homo sapiens) (UniProt P48729); assay: Inhibition of recombinant full length human GST-tagged CK1alpha1 expressed in baculovirus expression system at 0.1 uM using serine/threonine-11 peptide as substrate incubated for 60 mins by Z'-LYTE assay relative to control
Casein kinase I isoform alpha (Homo sapiens), sequence (P48729 2-337 limits assumed): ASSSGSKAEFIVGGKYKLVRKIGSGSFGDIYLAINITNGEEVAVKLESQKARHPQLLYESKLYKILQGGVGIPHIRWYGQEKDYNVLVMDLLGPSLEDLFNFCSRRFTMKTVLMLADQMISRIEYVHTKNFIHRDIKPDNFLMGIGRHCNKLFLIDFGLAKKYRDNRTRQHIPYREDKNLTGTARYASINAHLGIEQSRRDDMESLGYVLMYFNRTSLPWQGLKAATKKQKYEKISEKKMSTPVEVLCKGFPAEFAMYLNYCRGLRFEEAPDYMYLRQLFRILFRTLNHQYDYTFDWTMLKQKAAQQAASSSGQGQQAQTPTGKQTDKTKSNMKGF

[5] = target: Non-receptor tyrosine-protein kinase TYK2 (Homo sapiens) (UniProt P29597); assay: Inhibition of recombinant human GST-tagged TYK2 catalytic domain (833 to 1187 residues) expressed in baculovirus expression system at 0.1 uM using tyrosine-3 peptide as substrate incubated for 60 mins by Z'-LYTE assay relative to control
[6] = target: TGF-beta receptor type-1 (Homo sapiens) (UniProt P36897); assay: Inhibition of tracer 178 binding to recombinant human GST-tagged TGFBR1 catalytic domain (200 to 503 residues) expressed in baculovirus expression system at 0.1 uM measured after 60 mins by Lanthascreen assay
[7] = target: Casein kinase I isoform gamma-1 (Homo sapiens) (UniProt Q9HCP0); assay: Inhibition of recombinant full length human GST-tagged CK1 gamma 1 expressed in baculovirus expression system at 0.1 uM using serine/threonine-5 peptide as substrate incubated for 60 mins by Z'-LYTE assay relative to control
[8] = target: Phosphorylase b kinase gamma catalytic chain, liver/testis isoform (Homo sapiens) (UniProt P15735); assay: Inhibition of recombinant full length human GST-tagged PHKG2 expressed in baculovirus expression system at 0.1 uM using serine/threonine-7 peptide as substrate incubated for 60 mins by Z'-LYTE assay relative to control
Phosphorylase b kinase gamma catalytic chain, liver/testis isoform (Homo sapiens), sequence (P15735 whole entry, the tested form may be a part, canonical isoform): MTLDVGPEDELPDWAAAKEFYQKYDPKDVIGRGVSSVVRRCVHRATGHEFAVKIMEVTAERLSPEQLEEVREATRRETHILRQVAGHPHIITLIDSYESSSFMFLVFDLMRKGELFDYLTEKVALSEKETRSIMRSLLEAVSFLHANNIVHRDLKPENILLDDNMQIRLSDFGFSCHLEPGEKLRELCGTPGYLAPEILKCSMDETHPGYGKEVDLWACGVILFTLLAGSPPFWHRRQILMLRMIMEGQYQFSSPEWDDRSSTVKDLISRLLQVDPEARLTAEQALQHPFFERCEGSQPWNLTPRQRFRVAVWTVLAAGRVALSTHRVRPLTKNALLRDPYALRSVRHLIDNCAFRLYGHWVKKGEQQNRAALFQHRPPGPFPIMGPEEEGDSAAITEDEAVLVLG

[9] = target: Ephrin type-B receptor 3 (Homo sapiens) (UniProt P54753); assay: Inhibition of recombinant human GST-tagged EPHB3 catalytic domain (623 to 907 residues) expressed in baculovirus expression system at 0.1 uM using tyrosine-2 peptide as substrate incubated for 60 mins by Z'-LYTE assay relative to control
Ephrin type-B receptor 3 (Homo sapiens), sequence (P54753 whole entry, the tested form may be a part): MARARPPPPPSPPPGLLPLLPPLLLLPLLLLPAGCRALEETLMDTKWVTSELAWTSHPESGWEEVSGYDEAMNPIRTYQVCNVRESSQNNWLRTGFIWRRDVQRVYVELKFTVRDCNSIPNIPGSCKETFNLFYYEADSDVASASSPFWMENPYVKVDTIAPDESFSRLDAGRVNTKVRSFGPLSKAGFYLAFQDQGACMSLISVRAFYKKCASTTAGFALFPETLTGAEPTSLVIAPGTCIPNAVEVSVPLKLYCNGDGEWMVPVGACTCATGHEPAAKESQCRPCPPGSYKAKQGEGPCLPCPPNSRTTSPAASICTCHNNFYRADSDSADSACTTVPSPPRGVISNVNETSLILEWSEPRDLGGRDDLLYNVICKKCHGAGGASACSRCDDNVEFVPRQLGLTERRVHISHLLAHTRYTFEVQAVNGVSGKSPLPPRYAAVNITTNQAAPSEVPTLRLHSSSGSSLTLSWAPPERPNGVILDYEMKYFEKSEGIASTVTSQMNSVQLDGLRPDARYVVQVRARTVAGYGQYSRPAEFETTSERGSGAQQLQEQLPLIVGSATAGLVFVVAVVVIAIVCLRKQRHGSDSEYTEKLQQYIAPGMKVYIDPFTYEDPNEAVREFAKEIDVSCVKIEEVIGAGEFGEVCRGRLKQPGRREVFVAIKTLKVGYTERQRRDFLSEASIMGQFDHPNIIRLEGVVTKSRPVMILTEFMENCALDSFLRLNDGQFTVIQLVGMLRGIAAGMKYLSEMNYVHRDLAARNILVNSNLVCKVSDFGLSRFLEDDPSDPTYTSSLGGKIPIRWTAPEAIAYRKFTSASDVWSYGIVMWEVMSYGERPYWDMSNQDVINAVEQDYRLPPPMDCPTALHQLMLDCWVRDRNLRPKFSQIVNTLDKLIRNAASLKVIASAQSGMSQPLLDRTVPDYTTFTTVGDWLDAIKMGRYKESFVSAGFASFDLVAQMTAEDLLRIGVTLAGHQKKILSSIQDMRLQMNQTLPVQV

[10] = target: Serine/threonine-protein kinase PLK1 (Homo sapiens) (UniProt P53350); assay: Inhibition of recombinant full length human His-tagged PLK1 expressed in baculovirus expression system at 0.1 uM using serine/threonine-16 peptide as substrate incubated for 60 mins by Z'-LYTE assay relative to control
[11] = target: Tyrosine-protein kinase Fes/Fps (Homo sapiens) (UniProt P07332); assay: Inhibition of recombinant full length human His-tagged FES (FPS) expressed in baculovirus expression system at 0.1 uM using tyrosine-1 peptide as substrate incubated for 60 mins by Z'-LYTE assay relative to control
[12] = target: Aurora kinase A (Homo sapiens) (UniProt O14965); assay: Inhibition of recombinant full length human His-tagged Aurora A expressed in baculovirus expression system at 0.1 uM using serine/threonine-1 peptide as substrate incubated for 60 mins by Z'-LYTE assay relative to control
[13] = tested on: RAF proto-oncogene serine/threonine-protein kinase (Homo sapiens), P04049 [Y340D,Y341D]; assay: Inhibition of recombinant human GST-tagged RAF1 Y340D Y341D mutant catalytic domain (306 to 648 residues) expressed in baculovirus expression system at 0.1 uM using serine/threonine-3 peptide as substrate incubated for 60 mins by Z'-LYTE assay relative to control
[14] = target: Receptor tyrosine-protein kinase erbB-2 (Homo sapiens) (UniProt P04626); assay: Inhibition of recombinant human His-tagged ERBB2 catalytic domain (676 to 1255 residues) expressed in baculovirus expression system at 0.1 uM using tyrosine-6 peptide as substrate incubated for 60 mins by Z'-LYTE assay relative to control
[15] = target: Ephrin type-A receptor 1 (Homo sapiens) (UniProt P21709); assay: Inhibition of recombinant human GST-tagged EPHA1 (568 to 976 residues) expressed in baculovirus expression system at 0.1 uM using tyrosine-2 peptide as substrate incubated for 60 mins by Z'-LYTE assay relative to control
[16] = target: Tyrosine-protein kinase receptor TYRO3 (Homo sapiens) (UniProt Q06418); assay: Inhibition of recombinant human GST-tagged RSE catalytic domain (451 to 890 residues) expressed in baculovirus expression system at 0.1 uM using tyrosine-2 peptide as substrate incubated for 60 mins by Z'-LYTE assay relative to control
[17] = target: Tyrosine-protein kinase JAK1 (Homo sapiens) (UniProt P23458); assay: Inhibition of recombinant human GST-tagged JAK1 catalytic domain (866 to 1154 residues) expressed in baculovirus expression system at 0.1 uM using tyrosine-6 peptide as substrate incubated for 60 mins by Z'-LYTE assay relative to control
Tyrosine-protein kinase JAK1 (Homo sapiens), sequence (P23458 whole entry, the tested form may be a part): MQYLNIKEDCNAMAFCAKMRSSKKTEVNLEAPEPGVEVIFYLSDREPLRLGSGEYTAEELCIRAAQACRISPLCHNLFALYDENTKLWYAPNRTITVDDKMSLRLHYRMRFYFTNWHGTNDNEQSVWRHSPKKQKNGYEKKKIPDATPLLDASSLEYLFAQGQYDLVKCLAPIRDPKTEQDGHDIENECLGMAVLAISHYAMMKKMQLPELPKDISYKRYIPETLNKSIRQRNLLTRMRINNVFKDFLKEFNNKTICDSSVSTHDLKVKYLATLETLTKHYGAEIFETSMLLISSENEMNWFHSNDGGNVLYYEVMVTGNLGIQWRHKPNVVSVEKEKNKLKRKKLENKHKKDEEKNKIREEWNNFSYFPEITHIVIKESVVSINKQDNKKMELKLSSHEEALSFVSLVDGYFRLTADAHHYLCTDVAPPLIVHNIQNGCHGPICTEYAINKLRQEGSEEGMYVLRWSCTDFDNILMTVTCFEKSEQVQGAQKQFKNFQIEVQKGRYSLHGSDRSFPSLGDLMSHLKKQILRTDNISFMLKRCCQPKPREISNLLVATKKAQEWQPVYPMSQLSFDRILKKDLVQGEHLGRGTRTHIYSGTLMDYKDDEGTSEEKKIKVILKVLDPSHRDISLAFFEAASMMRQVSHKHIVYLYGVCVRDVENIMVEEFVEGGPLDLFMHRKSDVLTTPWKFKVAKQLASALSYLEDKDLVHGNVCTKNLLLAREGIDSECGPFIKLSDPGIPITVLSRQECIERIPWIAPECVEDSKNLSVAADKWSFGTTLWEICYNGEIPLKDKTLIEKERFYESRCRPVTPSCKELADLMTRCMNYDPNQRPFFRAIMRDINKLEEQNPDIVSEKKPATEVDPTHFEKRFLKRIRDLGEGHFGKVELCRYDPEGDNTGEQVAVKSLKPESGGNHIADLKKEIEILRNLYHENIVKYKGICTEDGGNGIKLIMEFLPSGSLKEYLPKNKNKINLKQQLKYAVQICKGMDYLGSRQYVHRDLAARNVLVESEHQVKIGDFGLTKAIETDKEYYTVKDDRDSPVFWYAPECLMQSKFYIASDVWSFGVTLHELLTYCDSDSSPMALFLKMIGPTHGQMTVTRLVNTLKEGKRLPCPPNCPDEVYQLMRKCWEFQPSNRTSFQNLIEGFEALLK

[18] = target: Serine/threonine-protein kinase Nek9 (Homo sapiens) (UniProt Q8TD19); assay: Inhibition of recombinant human GST-tagged NEK9 catalytic domain (347 to 732 residues) expressed in baculovirus expression system at 0.1 uM using serine/threonine-7 peptide as substrate incubated for 60 mins by Z'-LYTE assay relative to control
[19] = target: Dual specificity tyrosine-phosphorylation-regulated kinase 4 (Homo sapiens) (UniProt Q9NR20); assay: Inhibition of recombinant full length human GST-tagged DYRK4 expressed in baculovirus expression system at 0.1 uM using serine/threonine-9 peptide as substrate incubated for 60 mins by Z'-LYTE assay relative to control
Dual specificity tyrosine-phosphorylation-regulated kinase 4 (Homo sapiens), sequence (Q9NR20 whole entry): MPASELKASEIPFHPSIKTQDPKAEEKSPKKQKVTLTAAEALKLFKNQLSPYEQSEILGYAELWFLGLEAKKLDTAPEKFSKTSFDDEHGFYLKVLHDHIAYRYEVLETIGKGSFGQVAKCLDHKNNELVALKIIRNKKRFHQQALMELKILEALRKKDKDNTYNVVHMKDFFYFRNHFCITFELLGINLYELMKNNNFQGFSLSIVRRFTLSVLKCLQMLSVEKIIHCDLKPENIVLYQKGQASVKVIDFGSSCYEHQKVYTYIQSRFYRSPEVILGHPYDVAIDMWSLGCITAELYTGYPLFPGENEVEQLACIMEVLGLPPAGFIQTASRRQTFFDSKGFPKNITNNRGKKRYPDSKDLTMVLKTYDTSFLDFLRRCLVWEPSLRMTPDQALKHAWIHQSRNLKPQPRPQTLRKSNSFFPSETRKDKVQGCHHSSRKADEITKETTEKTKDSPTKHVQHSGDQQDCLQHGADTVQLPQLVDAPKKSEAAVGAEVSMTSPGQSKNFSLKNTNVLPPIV

[20] = target: Serine/threonine-protein kinase Chk1 (Homo sapiens) (UniProt O14757); assay: Inhibition of recombinant full length human His-tagged CHK1 expressed in baculovirus expression system at 0.1 uM using serine/threonine-19 peptide as substrate incubated for 60 mins by Z'-LYTE assay relative to control
Serine/threonine-protein kinase Chk1 (Homo sapiens), sequence (O14757 whole entry, the tested form may be a part): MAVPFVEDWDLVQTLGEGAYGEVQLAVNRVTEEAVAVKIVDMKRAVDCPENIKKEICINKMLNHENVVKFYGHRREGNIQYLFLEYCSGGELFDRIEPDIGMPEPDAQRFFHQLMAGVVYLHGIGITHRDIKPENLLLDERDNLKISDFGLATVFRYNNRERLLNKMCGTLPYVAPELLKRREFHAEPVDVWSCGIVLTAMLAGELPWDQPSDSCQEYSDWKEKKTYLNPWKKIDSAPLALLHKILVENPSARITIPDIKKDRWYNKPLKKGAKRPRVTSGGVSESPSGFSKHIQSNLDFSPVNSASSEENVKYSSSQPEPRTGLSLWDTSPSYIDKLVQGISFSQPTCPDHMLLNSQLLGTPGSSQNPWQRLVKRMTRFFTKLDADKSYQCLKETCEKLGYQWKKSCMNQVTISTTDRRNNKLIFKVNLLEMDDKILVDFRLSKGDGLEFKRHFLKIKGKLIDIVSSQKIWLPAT

[21] = target: Receptor tyrosine-protein kinase erbB-4 (Homo sapiens) (UniProt Q15303); assay: Inhibition of recombinant human GST-tagged ERBB4 catalytic domain (708 to 993 residues) expressed in baculovirus expression system at 0.1 uM using tyrosine-1 peptide as substrate incubated for 60 mins by Z'-LYTE assay relative to control
[22] = target: RAC-beta serine/threonine-protein kinase (Homo sapiens) (UniProt P31751); assay: Inhibition of recombinant full length human His-tagged AKT2 expressed in baculovirus expression system at 0.1 uM using serine/threonine-06 peptide as substrate incubated for 60 mins by Z'-LYTE assay relative to control
RAC-beta serine/threonine-protein kinase (Homo sapiens), sequence (P31751 whole entry): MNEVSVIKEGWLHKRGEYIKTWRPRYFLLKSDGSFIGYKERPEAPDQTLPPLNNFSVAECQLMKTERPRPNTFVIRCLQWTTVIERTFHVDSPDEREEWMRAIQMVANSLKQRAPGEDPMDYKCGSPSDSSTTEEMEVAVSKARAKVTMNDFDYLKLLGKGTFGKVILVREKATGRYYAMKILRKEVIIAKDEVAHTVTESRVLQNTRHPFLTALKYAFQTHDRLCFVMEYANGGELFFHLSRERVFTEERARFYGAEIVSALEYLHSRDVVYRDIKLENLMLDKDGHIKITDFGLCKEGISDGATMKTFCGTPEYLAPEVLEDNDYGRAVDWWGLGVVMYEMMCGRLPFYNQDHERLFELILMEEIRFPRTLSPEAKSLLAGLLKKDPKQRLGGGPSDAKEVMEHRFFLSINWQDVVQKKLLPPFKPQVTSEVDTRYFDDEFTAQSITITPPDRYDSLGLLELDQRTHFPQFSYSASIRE

Tyrosine-protein kinase CSK (Homo sapiens), sequence (P41240 2-450 limits assumed): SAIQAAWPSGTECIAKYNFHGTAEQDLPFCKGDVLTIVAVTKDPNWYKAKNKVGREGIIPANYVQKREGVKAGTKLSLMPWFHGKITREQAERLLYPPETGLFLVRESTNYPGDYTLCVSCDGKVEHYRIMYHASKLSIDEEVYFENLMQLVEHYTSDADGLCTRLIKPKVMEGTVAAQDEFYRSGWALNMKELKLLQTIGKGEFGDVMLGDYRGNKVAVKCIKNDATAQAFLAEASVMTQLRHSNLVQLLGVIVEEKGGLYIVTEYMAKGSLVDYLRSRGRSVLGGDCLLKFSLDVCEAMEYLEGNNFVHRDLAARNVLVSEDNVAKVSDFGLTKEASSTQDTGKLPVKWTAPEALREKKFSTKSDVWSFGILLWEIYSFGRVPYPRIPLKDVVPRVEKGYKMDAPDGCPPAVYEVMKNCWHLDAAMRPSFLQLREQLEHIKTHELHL

CCN1CC2(C1)CN(c1ccc(Nc3ncc(F)c(-c4cnn5c4[C@H](C)CCCC5)n3)nc1)C2
inhibition [1]: 3% | inhibition [2]: 6.5% | inhibition [3]: 2% | inhibition [4]: 1.5% | inhibition [5]: 32.5% | inhibition [6]: 16% | inhibition [7]: 1.5% | inhibition [8]: 23% | inhibition [9]: 1% | inhibition [10]: 2% | inhibition [11]: 19% | inhibition [12]: 12% | inhibition [13]: -0.5% | inhibition [14]: 0% | inhibition [15]: 9.5% | inhibition [16]: 31% | inhibition [17]: 5% | inhibition [18]: -1.5% | inhibition [19]: 3% | inhibition [20]: 9% | inhibition [21]: -6.5% | inhibition [22]: 9.5%

CCN1CCN(Cc2ccc(Nc3ncc(F)c(-c4cc(F)c5nc(C)n(C(C)C)c5c4)n3)nc2)CC1 [ABEMACICLIB]
inhibition [1]: 4% | inhibition [2]: 2.1% | inhibition [3]: 9.5% | inhibition [4]: 4.5% | inhibition [5]: 3% | inhibition [6]: 10.9% | inhibition [7]: -0.5% | inhibition [8]: 7% | inhibition [9]: -0.5% | inhibition [10]: 8.5% | inhibition [11]: 11% | inhibition [12]: 9.5% | inhibition [13]: 0% | inhibition [14]: 1.5% | inhibition [15]: 8% | inhibition [16]: 17% | inhibition [17]: 2% | inhibition [18]: 2% | inhibition [19]: 5% | inhibition [20]: -4.5% | inhibition [21]: 3% | inhibition [22]: 3%
